# d = 2'-deoxy (DNA); r = 2'-OH (RNA)
# How the values were obtained:
# [1] = test system: canonical pathway in MM cell lines and tumors; settings: cited from earlier work
# [2] = test system: patient EBV cells with heterozygous risk allele (1/2); assay: MTT proliferation assay of nucleofected cells treated with sFasL; type: cell-based, human; settings: cells treated with sFasL 24 h post nucleofection; compared with control siRNA (CsiRNA) plus sFasL
# Experimental: The effect of DcR3 on cell proliferation was measured by the colorimetric MTT assay using an MTT (Microtiter-tetrazolium, Sigma, USA) based assay. Briefly, the cells (5,000/ml) were incubated in triplicate in a 96-well plate (Costar, Cambridge, Mass., USA) in a final volume of 0.2 ml for the indicated times. Thereafter, 20 μl of MTT solution (5 g/L) was added to each well and then incubated for 12 h. After centrifugation, the supernatant was removed from each well. The colored formazan crystal produced from MTT was dissolved in 0.15 ml of DMSO and then the optical density (OD) value was measured on a microplate reader. Each experiment was performed in duplicate and repeated five times.
# (§1) Post 24, 48 and 72 hours of nucleofection, cells were harvested and whole cell lysates were evaluated for DcR3 expression by immunoblot analysis. […] Nucleofection had no adverse effect on cell viability (data not shown). In addition, cells nucleofected with control and DcR3 siRNA post 24 h were treated with sFasL and analysed for cell death using MTT Proliferation assay.
# DcR3 = assay: siRNA knockdown of DcR3 expression, immunoblot of whole cell lysates; type: cell-based, human; settings: P (1/2) EBV cells, 100 nM siRNA, versus control siRNA; whole cell lysates 24, 48 and 72 hours post nucleofection
# Experimental: The expression of DcR3 was reduced using siRNAs in the EBV transformed cell lines derived from control and IBD patients harboring risk variants in TNFRSF6B (A allele). Briefly, 3×10^6 cells were transfected with 100 nM DcR3 siRNA duplexes or with DcR3 non-silence control using Amaxa Nucleofector Kit and program T-20. The siRNA-transfected cells were incubated for 48 h after nucleofection and the degree of knockdown relative to introduction of control siRNA was confirmed by western blot using DcR3 mouse monoclonal antibody (Abgent) on whole cell lysates. The 21-mer siRNAs were synthesized by DHARMACON. The DcR3 siRNA sequences were as follows: sense sequence, 5′-GCC AGG CUC UUC CUC CCA UdTdT-3′ (SEQ ID NO: 1); antisense sequence, 5′-AUG GGA GGA AGA GCC UGG CdTdT-3′ (SEQ ID NO: 2). The non-silence control siRNA sequences were as follows: sense sequence, 5′-GCC CGC UUU CCC UCA GCA UdTdT-3′ (SEQ ID NO: 3); antisense sequence, 5′-AUG CUG AGG GAA AGC GGG C-3 (SEQ ID NO: 4).
# as §1
Molecule,off-target effect on canonical NF-κB pathway [1],cell growth (MTT) after sFasL treatment [2],DcR3 expression post nucleofection (DcR3)
"CC(C)C[C@H](NC(=O)[C@H](Cc1ccccc1)NC(=O)c1cnccn1)B(O)O [Velcade bortezomib, bortezomib]",induce up-regulation of the canonical pathway,,
"DcR3 siRNA: 21-mer siRNA duplex, sense 5′-GCC AGG CUC UUC CUC CCA UdTdT-3′, antisense 5′-AUG GGA GGA AGA GCC UGG CdTdT-3′, synthesized by DHARMACON (sense GCCAGGCUCUUCCUCCCAUTT; antisense AUGGGAGGAAGAGCCUGGCTT; sugars from the 5' end r19 d2, backbone not given here)",,decrease in cell growth,reduced DcR3 levels first seen at 24 h and maintained for at least 48 h
